Assay results as given in publication PMC10534827 (Pharmaceuticals, 2023).
Where two headings read alike, the source gives them in different places.

How the values were obtained:
Neuro-2a cells = assay: MTT cytotoxicity, Neuro-2a; format: cell-based, murine; details: read-out: Neuro-2a IC50
SH-SY5Y cells = assay: MTT cytotoxicity, SH-SY5Y; format: cell-based, human; details: read-out: SH-SY5Y IC50
CCL-1 cells = assay: MTT cytotoxicity, CCL-1 normal fibroblasts; format: cell-based, murine; details: read-out: CCL-1 IC50
[1] = target: T1, Acetylcholinesterase from Electrophorus electricus (Electrophorus electricus, UniProt O42275); assay: biochemical; format: biochemical; details: for inhibition at 1000 µM: 1 mM solution of the tested compound, read-out: Activity [%] (inhibition percentage of AChE); for IC50: mean ± SD of three experiments, read-out: AChE IC50
T1 construct: purchased Sigma-Aldrich, Hamburg, Germany
T1 sequence (O42275 24-633): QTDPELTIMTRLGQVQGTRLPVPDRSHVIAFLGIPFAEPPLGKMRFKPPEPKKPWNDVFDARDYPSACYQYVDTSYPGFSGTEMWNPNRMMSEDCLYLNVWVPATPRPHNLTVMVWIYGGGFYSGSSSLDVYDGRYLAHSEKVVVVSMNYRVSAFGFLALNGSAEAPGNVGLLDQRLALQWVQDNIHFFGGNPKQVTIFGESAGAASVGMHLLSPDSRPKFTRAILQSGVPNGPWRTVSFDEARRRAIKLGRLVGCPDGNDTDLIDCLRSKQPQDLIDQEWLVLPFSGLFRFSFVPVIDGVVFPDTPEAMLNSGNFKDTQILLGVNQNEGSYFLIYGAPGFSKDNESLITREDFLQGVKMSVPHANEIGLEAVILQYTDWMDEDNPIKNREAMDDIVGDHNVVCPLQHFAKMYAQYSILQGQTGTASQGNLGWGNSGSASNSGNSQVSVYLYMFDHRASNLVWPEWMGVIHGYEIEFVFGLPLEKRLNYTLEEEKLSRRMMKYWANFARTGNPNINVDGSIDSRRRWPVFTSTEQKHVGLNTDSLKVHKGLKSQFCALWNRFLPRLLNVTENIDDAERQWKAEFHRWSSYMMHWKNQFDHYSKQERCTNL
Description: (§1) AChE and BChE inhibitory activity was measured using the microplate assay described by Ellman et al. [68] with the modifications added by López et al. [36]. The compounds were tested at concentrations between 10^−3 and 10^−8 M. First, all compounds were dissolved in 1% DMSO in a concentration of 1 mg/mL.
(§2) Incubation of the plates was performed at room temperature for 30 min. Then, 100 μL of substrate solution were added to start the enzymatic reaction. […] Enzyme activity was calculated as an inhibition percentage compared to an assay including buffer instead of an inhibitor. […] All data were analyzed with the software package Prism 3 (Graph Pad Inc., San Diego, CA, USA).

[2] = target: T2, butyrylcholinesterase from equine serum (Equus caballus, UniProt P81908); assay: biochemical; details: for inhibition at 1000 µM: read-out: Activity [%] (inhibition percentage of BChE); for SI BChE: IC50(AChE)/IC50(BChE)
T2 construct: butyrylcholinesterase from equine serum; purchased Sigma-Aldrich, Hamburg, Germany; host or cells: equine serum
T2 sequence (P81908 whole entry): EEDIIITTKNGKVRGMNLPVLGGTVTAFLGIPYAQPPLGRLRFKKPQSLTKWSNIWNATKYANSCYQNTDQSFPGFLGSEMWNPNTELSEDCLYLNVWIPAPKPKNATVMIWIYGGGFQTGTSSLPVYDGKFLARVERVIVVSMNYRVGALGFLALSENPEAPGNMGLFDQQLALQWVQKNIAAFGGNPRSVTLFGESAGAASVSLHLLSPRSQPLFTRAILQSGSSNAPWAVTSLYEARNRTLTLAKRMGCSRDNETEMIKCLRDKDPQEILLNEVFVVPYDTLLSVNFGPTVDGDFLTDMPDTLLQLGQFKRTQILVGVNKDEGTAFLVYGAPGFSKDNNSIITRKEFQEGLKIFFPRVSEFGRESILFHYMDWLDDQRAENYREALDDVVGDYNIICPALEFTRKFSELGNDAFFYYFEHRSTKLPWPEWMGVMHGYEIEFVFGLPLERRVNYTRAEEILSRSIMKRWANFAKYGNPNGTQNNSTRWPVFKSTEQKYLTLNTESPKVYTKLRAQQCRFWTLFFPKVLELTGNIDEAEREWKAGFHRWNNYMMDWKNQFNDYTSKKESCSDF
Description: as §1, §2

[3] = Ferric reducing antioxidant power (FRAP); details: 150 μL of 5 mM compound, 30 min, 593 nm, Trolox equivalent
[4] = Lipid peroxidation in linoleic acid system, FTC method; details: 10 mM compound, 500 nm
Description: The antioxidant activity of studied compounds against lipid peroxidation was measured through ammonium thiocyanate assay as described by Takao et al. [66] with some modifications. […] A 10 μL aliquot of the reaction solution was then added to 200 μL of 70% (v/v) ethanol and 10 μL of 30% (w/v) ammonium thiocyanate. […] Aliquots were assayed every 24 h until the day after the absorbance of the control solution (without compound) reached maximum value. BHT (10 mM) was used as positive control.

[5] = ABTS radical scavenging assay; details: 734 nm after 5 min
Description: These compounds were also tested for their antioxidant activities by using the ABTS [2,2′-azinobis (3-ethylbenzothiazoline-6-sulfonic acid)] cation radical decolorization method (Table 4). The BHT [41] was used for comparison. The ABTS cation radical is produced by oxidation of the ABTS molecule with strong oxidizing agents, such as potassium persulfate in water.
For ABTS assay, the procedure followed the method of Arnao et al. [71] with some modifications. […] The working solution was then prepared by mixing the two stock solutions in equal quantities and allowing them to react for 14 h at room temperature in the dark. […] A fresh ABTS solution was prepared for each assay. […] The ABTS scavenging capacity of the compound was calculated as follows:ABTS radical scavenging activity (%) = ((Abscontr. − Abssample)/Abscontr.) ×100, where Abscontr. is the absorbance of DPPH radical with 300 μL MeOH, Abssample is the absorbance of DPPH radical solution mixed with the sample. […] BHT was used as positive control.

[6] = Mus musculus, N2a, MTT, 72 h exposure
[7] = Homo sapiens, SH-SY5Y, MTT, 72 h exposure
[8] = Mus musculus, Fibroblast, MTT, 72 h exposure
[9] = 1 mM solution of the tested compound
[10] = mean ± SD of three experiments, read-out: BChE IC50

Compound `O=C(N/N=C/c1ccc(O)cc1)C1CCN(Cc2ccccc2)C1` (stereo not drawn) [3e, 1-benzyl-N’-[(E)-(4-hydroxyphenyl)methylidene]pyrrolidine-3-carbohydrazide] has an IC50 (Neuro-2a cells; [6]) of over 300 µM, an IC50 (SH-SY5Y cells; [7]) of 170 ± 10.6 µM and an IC50 (CCL-1 cells; [8]) of over 300 µM. The “AChE inhibitory activity in words” value [1] was “practically inactive”, the inhibition at 1000 µM [1] was 3.84% and the IC50 [1] was over 1 mM. The inhibition at 1000 µM [2, 9] was 12.4% and the IC50 [2, 10] was over 1 mM.

`O=C(N/N=C/c1ccc(O)cc1O)C1CCN(Cc2ccccc2)C1` (stereo not drawn) [3f, 1-benzyl-N’-[(E)-(2,4-dihydroxyphenyl)methylidene]pyrrolidine-3-carbohydrazide] gave an IC50 (Neuro-2a cells; [6]) of 12.5 ± 2.4 µM, an IC50 (SH-SY5Y cells; [7]) of 35.8 ± 5.5 µM and an IC50 (CCL-1 cells; [8]) of 150 ± 11.2 µM. The inhibition at 1000 µM [1] was 64.1%, the “SI AChE” value ([1]; IC50(BChE)/IC50(AChE)) was 1.28 and the IC50 [1] was 0.55 ± 0.0371 mM. For the same compound, the inhibition at 1000 µM [2, 9] was 57.2% and the IC50 [2, 10] was 0.709 ± 0.0413 mM.

For `O=C(N/N=C/c1ccc(O)c(O)c1)C1CCN(Cc2ccccc2)C1` (stereo not drawn) [3g, 1-benzyl-N’-[(E)-(3,4-dihydroxyphenyl)methylidene]pyrrolidine-3-carbohydrazide], the IC50 (Neuro-2a cells; [6]) was 110 ± 9.1 µM, the IC50 (SH-SY5Y cells; [7]) was over 300 µM and the IC50 (CCL-1 cells; [8]) was over 300 µM. For the same compound, the “AChE inhibitory activity in words” value [1] was “practically inactive”, the inhibition at 1000 µM [1] was 2.74% and the IC50 [1] was over 1 mM. It also gave an inhibition at 1000 µM [2, 9] of 28.2% and an IC50 [2, 10] of over 1 mM.

With `O=C(N/N=C/c1c(O)cc(O)cc1O)C1CCN(Cc2ccccc2)C1` (stereo not drawn) [3h, 1-benzyl-N’-[(E)-(2,4,6-trihydroxyphenyl)methylidene]pyrrolidine-3-carbohydrazide] the IC50 (Neuro-2a cells; [6]) was over 300 µM, the IC50 (SH-SY5Y cells; [7]) was over 300 µM and the IC50 (CCL-1 cells; [8]) was over 300 µM. For the same compound, the inhibition at 1000 µM [1] was 73.3%, the IC50 [1] was 0.351 ± 0.0179 mM and the inhibition at 1000 µM [2, 9] was 76.5%. The “SI BChE” value [2] was 1.96 and the IC50 [2, 10] was 0.179 ± 0.0115 mM.

For `COc1ccc2[nH]cc(/C=N/NC(=O)CNC(=O)OC(C)(C)C)c2c1` [3j], the IC50 (Neuro-2a cells; [6]) was over 300 µM, the IC50 (SH-SY5Y cells; [7]) was 150 ± 12.3 µM and the IC50 (CCL-1 cells; [8]) was over 300 µM. For the same compound, the IC50 [1] was over 1 mM, the inhibition at 1000 µM [2, 9] was 17.4% and the IC50 [2, 10] was over 1 mM.

`COc1ccc2c(c1)c(/C=N/NC(=O)CNC(=O)OC(C)(C)C)cn2C` [3k] gave an IC50 (Neuro-2a cells; [6]) of over 300 µM, an IC50 (SH-SY5Y cells; [7]) of 131 ± 11.8 µM and an IC50 (CCL-1 cells; [8]) of over 300 µM. It also gave an inhibition at 1000 µM [1] of 3.26%, an IC50 [1] of over 1 mM and an inhibition at 1000 µM [2, 9] of 30.3%. For the same compound, the IC50 [2, 10] was over 1 mM.

With `Cn1cc(/C=N/NC(=O)CNC(=O)OC(C)(C)C)c2ccccc21` [3l, tert-butyl(2-{(2E)-2-[(1-methyl-1H-indol-3-yl)methylidene]hydrazinyl}-2-oxoethyl)carbamate] the IC50 (Neuro-2a cells; [6]) was over 300 µM, the IC50 (SH-SY5Y cells; [7]) was 107 ± 8.9 µM and the IC50 (CCL-1 cells; [8]) was over 300 µM. The IC50 [1] was over 1 mM, the inhibition at 1000 µM [2, 9] was 39.1% and the IC50 [2, 10] was over 1 mM.

In the case of `COc1ccc(/C=N/NC(=O)c2c[nH]c3ccccc23)cc1OC` [3o, N’-[(E)-(3,4-dimethoxyphenyl)methylidene]-1H-indole-3-carbohydrazide], the IC50 (Neuro-2a cells; [6]) is reported as 126 ± 10.7 µM, the IC50 (SH-SY5Y cells; [7]) is reported as 70 ± 7.2 µM and the IC50 (CCL-1 cells; [8]) is reported as over 300 µM. It also gave an IC50 [1] of over 1 mM and an IC50 [2, 10] of over 1 mM.

Work on `COc1ccc(/C=N/NC(=O)Cc2c[nH]c3ccccc23)cc1OC` [3p, N’-[(E)-(3,4-dimethoxyphenyl)methylidene]-2-(1H-indol-3-yl)acetohydrazide] yielded an IC50 (Neuro-2a cells; [6]) of 116 ± 12.8 µM, an IC50 (SH-SY5Y cells; [7]) of 87.4 ± 7.7 µM and an IC50 (CCL-1 cells; [8]) of over 300 µM. The IC50 [1] was over 1 mM, the inhibition at 1000 µM [2, 9] was 24% and the IC50 [2, 10] was over 1 mM.

`COc1cc(/C=N/NC(=O)c2ccc(O)cc2O)ccc1O` [3r, 2,4-dihydroxy-N’-[(E)-(4-hydroxy-3-methoxyphenyl)methylidene]benzohydrazide] showed an IC50 (Neuro-2a cells; [6]) of over 300 µM, an FRAP [3] of 14.30 ± 0.56 μMTE and an IC50 (SH-SY5Y cells; [7]) of 156 ± 11.1 µM. It also gave an IC50 (CCL-1 cells; [8]) of over 300 µM, an IC50 [1] of over 1 mM and an inhibition at 1000 µM [2, 9] of 16.9%. For the same compound, the IC50 [2, 10] was over 1 mM, the “Absorbance Day 1” value [4] was 0.80 ± 0.04 and the “Absorbance Day 2” value [4] was 0.81 ± 0.01. The “Absorbance Day 3” value [4] was 0.82 ± 0.02, the “Absorbance Day 4” value [4] was 0.87 ± 0.09 and the “Absorbance Day 5” value [4] was 0.86 ± 0.09. The “ABTS Activity” value [5] was 91.41 ± 0.47% and the IC50 [5] was 2.5 ± 0.23 mM.

For `COc1ccc(S(=O)(=O)N/N=C/c2cn(C)c3ccc(OC)cc23)cc1` [5b, 4-methoxy-N’-[(E)-(5-methoxy-1-methyl-1H-indol-3-yl)methylidene]benzenesulfonohydrazide], the IC50 (Neuro-2a cells; [6]) was 30.5 ± 3.2 µM, the IC50 (SH-SY5Y cells; [7]) was 70.4 ± 4.9 µM and the IC50 (CCL-1 cells; [8]) was 38.1 ± 3.5 µM. The IC50 [1] was over 1 mM and the IC50 [2, 10] was over 1 mM.

Compound `COc1ccc(S(=O)(=O)N/N=C/c2c[nH]c3ccc(OC)cc23)cc1` [5c, 4-methoxy-N’-[(E)-(5-methoxy-1H-indol-3-yl)methylidene]benzenesulfonohydrazide] has an IC50 (Neuro-2a cells; [6]) of 7.5 ± 2.4 µM, an IC50 (SH-SY5Y cells; [7]) of 48.3 ± 5.2 µM and an IC50 (CCL-1 cells; [8]) of 25.7 ± 2.9 µM. The IC50 [1] was over 1 mM, the inhibition at 1000 µM [2, 9] was 18.2% and the IC50 [2, 10] was over 1 mM.

`O=S(=O)(N/N=C/c1cn(Cc2ccccc2)c2ccccc12)c1ccccc1` [5d, N’-[(E)-(1-benzyl-1H-indol-3-yl)methylidene]benzenesulfonohydrazide] gave an IC50 (Neuro-2a cells; [6]) of 117 ± 11.5 µM, an IC50 (SH-SY5Y cells; [7]) of 99.5 ± 7.8 µM and an IC50 (CCL-1 cells; [8]) of 140 ± 8.4 µM. It also gave an inhibition at 1000 µM [1] of 41.7%, an IC50 [1] of over 1 mM and an IC50 [2, 10] of over 1 mM.

For `COc1ccc(S(=O)(=O)N/N=C/c2cn(C)c3ccccc23)cc1` [5e, 4-methoxy-N’-[(E)-(1-methyl-1H-indol-3-yl)methylidene]benzenesulfonohydrazide], the IC50 (Neuro-2a cells; [6]) was 19.9 ± 1.7 µM, the IC50 (SH-SY5Y cells; [7]) was 83.3 ± 4.9 µM and the IC50 (CCL-1 cells; [8]) was 180 ± 9.6 µM. It also gave an IC50 [1] of over 1 mM and an IC50 [2, 10] of over 1 mM.

`Cc1ccc(S(=O)(=O)N/N=C/c2c[nH]c3ccc(OCc4ccccc4)cc23)cc1` [5j, N’-{(E)-[5-(benzyloxy)-1H-indol-3-yl]methylidene}-4-methylbenzenesulfonohydrazide] showed an IC50 (Neuro-2a cells; [6]) of 65.4 ± 0.1 µM, an FRAP [3] of 18.59 ± 2.28 μMTE and an IC50 (SH-SY5Y cells; [7]) of 33.1 ± 0.1 µM. It also gave an IC50 (CCL-1 cells; [8]) of 41.2 ± 4.2 µM, an inhibition at 1000 µM [1] of 13.2% and an IC50 [1] of over 1 mM. For the same compound, the inhibition at 1000 µM [2, 9] was 56.9%, the “SI BChE” value [2] was 1.15 and the IC50 [2, 10] was 0.865 ± 0.159 mM. The “Absorbance Day 1” value [4] was 0.83 ± 0.01, the “Absorbance Day 2” value [4] was 0.83 ± 0.08 and the “Absorbance Day 3” value [4] was 0.84 ± 0.02. The “Absorbance Day 4” value [4] was 0.83 ± 0.05, the “Absorbance Day 5” value [4] was 0.82 ± 0.02 and the “ABTS Activity” value [5] was at least 100%. For the same compound, the IC50 [5] was 2.18 ± 0.16 mM.

`O=S(=O)(N/N=C/c1ccc(Cl)cc1)c1ccccc1` [5l, N’-[(E)-(4-chlorophenyl)methylidene]benzenesulfonohydrazide] gave an IC50 (Neuro-2a cells; [6]) of 117 ± 11.5 µM, an IC50 (SH-SY5Y cells; [7]) of 99.5 ± 7.8 µM and an IC50 (CCL-1 cells; [8]) of 131 ± 11.4 µM. The IC50 [1] was over 1 mM and the IC50 [2, 10] was over 1 mM.

With `COc1cc2c(cc1OC)C(=O)C(CC1CCN(Cc3ccccc3)CC1)C2` (stereo not drawn) [Donepezil, 1-Benzyl-4-[(5,6-dimethoxy-1-indanon-2-yl)methyl]piperidine, reference compound] the inhibition at 1000 µM [2] was 69.1%.

For `COc1ccc2c3c1O[C@H]1C[C@@H](O)C=C[C@@]31CCN(C)C2` [Galanthamine, reference compound], the IC50 (Neuro-2a cells; Mus musculus, N2a, 72 h) was over 300 µM, the IC50 (SH-SY5Y cells; Homo sapiens, SH-SY5Y, 72 h) was over 300 µM and the IC50 (CCL-1 cells; Mus musculus, Fibroblast, 72 h) was over 300 µM. The inhibition at 1000 µM [2] was 85.8%.

Work on `COc1ccc2[nH]cc(CCNC(C)=O)c2c1` [Melatonin, reference compound] yielded an inhibition at 1000 µM [1] of 1.24%, an IC50 [1] of over 1 mM and an IC50 [2] of over 1 mM. For the same compound, the inhibition at 1000 µM [2] was 4.21 ± 0.88%, the “Absorbance Day 1” value [4] was 0.75 ± 0.07 and the “Absorbance Day 2” value [4] was 0.80 ± 0.09. For the same compound, the “Absorbance Day 3” value [4] was 0.89 ± 0.05, the “Absorbance Day 4” value [4] was 0.89 ± 0.02 and the “Absorbance Day 5” value [4] was 0.94 ± 0.01.

“N’-[(E)-(5-methoxy-1-methyl-1H-indol-3-yl)methylidene]benzenesulfonohydrazide [5f]” gave an IC50 (Neuro-2a cells; MTT, 72 h exposure) of 135 ± 10.9 µM, an IC50 (SH-SY5Y cells; MTT, 72 h exposure) of 132 ± 10.3 µM and an IC50 (CCL-1 cells; MTT, 72 h exposure) of 167 ± 11.8 µM. The IC50 [1] was over 1 mM and the IC50 [2, 10] was over 1 mM.
